In patent EP0410446A1, “(S)-5-hydroxydecanoic acid and its therapeutic composition” (MOCHIDA PHARMACEUTICAL CO., LTD., priority 1989, dated 1991):
Where two headings read alike, the source gives them in different places.

Columns and labels:
[1] = system: ATP regulated K⁺ channels; assay: Effect on ATP regulated K⁺ channels in guinea-pig cardiac cells (single channel recording, inside-out patch clamp, opening probability); format: cell-based; settings: for Inhibition rate (%): Dose 3x10⁻⁴ M, single guinea-pig cardiac cells, inside-out patch, opening probability at 0 mV membrane potential
Protocol: According to the method described by Kakei, M., et al., ( J. Physiol., 363 441-462, 1985 ), single cardiac cells were prepared. Guinea-pigs were anesthetized with an intraperitoneally injection of pentobarbital sodium with 30 mg/kg and the chest was opened under artificial respiration. The aorta was cannulated in situ to perfuse the coronary arteries with Tyrode solution (NaCl 136.1, KCl 5.4, CaCl₂ 1.8, MgCl₂ 0.5, NaH₂PO₄ 0.33, glucose 5.5, N-2-hydroxyethylpiperazine-N′-2-ethanesulfonic acid (HEPES) 5.0, each in mM, and the pH was adjusted to 7.4 with NaOH), then the heart was dissected out and mounted on Langendorff apparatus to perfuse. After blood was washed out by Tyrode solution, the heart was perfused with the 100 ml of Ca²⁺-free Tyrode solution and then with Ca²⁺-free Tyrode solution containing 0.17 mg/ml collagenase for 5-20 minutes. Subsequently, the enzyme was washed out from the heart with the 100 ml of KB solution (taurine 10, oxalic acid 10, glutamic acid 80, KCl 25, KH₂PO₄ 10, HEPES 10, glucose 11, ethyleneglycolbis(β-aminoethylether)-N,N′-tetraacetic acid (EGTA) 0.5, each in mM, and the pH was adjusted to 7.4 with KOH) and the heart was stored in KB solution at 4°C for at least 1 hour. Before electrical recording, a part of ventricular muscle was dissected and was shaken in recording chamber (0.7 ml) filled with Tyrode solution to disperse each cells. The method of single channel electrical recording was essentially the same as described by Hamill, A., et al., (Pflugers Arch., 391 85-100, 1981 ). Glass electrodes were made from Pyrex glass capillaries by use of a puller (2 - 10 MΩ) and were heated to polish just before use. An electrode solution was KCl 5.4, NaCl 144.6, CaCl₂ 2, HEPES 5 (each in mM) and the pH was adjusted to 7.4 with NaOH. After dispersed cells sank and adhered to the bottom of recording chamber, high K⁺ solution (KCl 140, MgCl₂ 1.0, KH₂PO₄ 0.5, EGTA 1.0, HEPES 5.0, each in mM, and the pH was adjusted to 7.4 with KOH) was perfused at flow rate of 2 - 3 ml/minute. After established a high seal resistance (5 - 20 GΩ) obtained by attaching an electrode to a cell membrane and applying suction (0 - -50 cm H₂O), a channel current was detected by inside-out configuration by use of a patch clamp amplifier (8900, DAGAN) at a filter setting of 1 KHz. A channel current and a membrane potential were monitored by an oscilloscope and were recorded by a datarecorder. An opening probability, that is a ratio of channel opening period to recording period, were analyzed by using a p-CLAMP (AXON) at 0 mV of a membrane potential. Compounds were dissolved in high K⁺ solution to be perfused.

male ddY mice = format: in vivo; settings: 1 g/kg, five male ddY mice, observed for one week
Description: Five male ddY mice weighting about 25 g were orally administered once or intraperitoneally injected once with 1 g/kg of sodium (S)-5-hydroxydecanoate.

| Structure (SMILES) | Inhibition rate (%) [1] | activity on ATP regulated K⁺ channels (in words) ([1]; summary of table 1, 3x10⁻⁴ M) | Acute toxicity (abnormality, death) (male ddY mice; intraperitoneally injected once) | Acute toxicity (abnormality, death) (male ddY mice; orally administered once) | inhibitory effect on ATP regulated K⁺ channels compared with racemate ([1]; comparison of the values in table 1, 3x10⁻⁴ M) |
| --- | --- | --- | --- | --- | --- |
| CCCCC[C@@H](O)CCCC(=O)[O-].[Na+] [(R)-5-HD, Sodium 5-hydroxydecanoate] | 10% | few activity |  |  |  |
| CCCCCC(O)CCCC(=O)[O-].[Na+] (racemic) [(R,S)-5-HD, Sodium 5-hydroxydecanoate] | 30% |  |  |  |  |
| CCCCC[C@H](O)CCCC(=O)[O-].[Na+] [(S)-5-HD, sodium (S)-5-hydroxydecanoate] | 69% |  | no abnormality occurred and no animal died | no abnormality occurred and no animal died | about twice as good as racemate |
